These results are taken from patent US11945875B2, “Motile sperm domain containing protein 2 and cancer” (ImmuneWalk Therapeutics, Inc., priority 2015, dated 2024).

One assay relates to human monocytes. Conditions: cited from earlier work.
For a further assay, the target named is T1, TLR2 (Homo sapiens, UniProt O60603).
T1 construct: endogenous in cells; host or cells: human CD14 monocytes
Nature of the assay: Precipitation of proteins from human CD14 monocyte lysate with labelled VB-201 or VB-221, Western blot. Conditions: ovalbumin-biotin labelled compound (OB201/OB221). The class given is binding. The procedure: (§1) VB-201 and VB-221 were labeled with biotin as follows. VB-201, VB-221 and ovalbumin (OVA, Sigma, Israel) were dissolved in 0.1 M MES buffer (Thermo Scientific, Rockford, IL) and conjugated using EDC [1-ethyl-3-(dimethylaminopropyl) carbodiimide HCL] (Thermo Scientific) at a molar ratio of 100 (VB-201/VB-221):1 (OVA):240 (EDC) for 2-3 hr at room temperature. After which, samples were transferred to 10 kDa dialysis cassettes (Thermo Scientific) and dialyzed overnight against PBS. The ovalbumin bound VB-201 (OB201) and VB-221 (OB221) were then conjugated with amine-PEG2-biotin (in 0.1 M MES buffer) using EDC at a molar ratio of 1 (OB201/OB221):100 (amine-PEG2-biotin):700 (EDC). The reaction was allowed to proceed for 2-3 hours at room temperature after which samples were again transferred to a 10 kDa dialysis cassette and dialyzed overnight against PBS.
(§2) Cells were lysed using a 1% NP-40 lysis buffer containing 1:100 protease and phosphatase inhibitors, followed by 20 min incubation on ice and 15 min centrifugation at maximum speed. Samples were incubated overnight at 4° C. with solvent, OB201 or OB221 in a rotator. Streptavidin agarose beads (Sigma, Israel) were added for 2 hours. Protein elution was performed with lysis buffer without DTT for 10 min at room temperature. Sample loading, transfer and immuno-blotting were performed as described above. […]
(Immunoblotting shows a protein as a band on a membrane.)

Assay [1] addresses T2, MOSPD2 (Homo sapiens, UniProt Q8NHP6).
T2 sequence (Q8NHP6 1-518): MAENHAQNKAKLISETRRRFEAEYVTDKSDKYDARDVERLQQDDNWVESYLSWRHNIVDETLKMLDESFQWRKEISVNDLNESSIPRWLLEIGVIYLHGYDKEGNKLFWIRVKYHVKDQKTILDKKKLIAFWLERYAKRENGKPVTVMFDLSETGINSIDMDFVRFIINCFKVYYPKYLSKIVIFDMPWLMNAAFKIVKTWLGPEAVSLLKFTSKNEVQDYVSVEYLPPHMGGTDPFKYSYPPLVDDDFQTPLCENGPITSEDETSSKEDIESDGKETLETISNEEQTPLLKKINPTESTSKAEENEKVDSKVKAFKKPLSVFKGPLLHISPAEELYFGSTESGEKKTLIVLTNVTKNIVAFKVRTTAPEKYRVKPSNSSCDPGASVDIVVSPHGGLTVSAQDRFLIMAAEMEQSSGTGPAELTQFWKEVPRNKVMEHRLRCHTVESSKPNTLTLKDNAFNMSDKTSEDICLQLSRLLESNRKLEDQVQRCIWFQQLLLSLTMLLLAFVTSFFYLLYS
Nature of the assay: Binding to HEK293 cells transfected with HA-tagged human MOSPD2. Further details: expressed in transfected cells; host or cells: HEK293. The note with it: ovalbumin labeled compound. The source says: VB-201 inhibits human monocyte chemotaxis in vitro and signaling pathways activated downstream of chemokine receptors.

Assay [2] has as its target T2, MOSPD2. Nature of the assay: Precipitation of proteins from human CD14 monocyte lysate with labelled VB-201 or VB-221, Western blot. It counts as binding. Further details: endogenous in cells; host or cells: human CD14 monocytes. Conditions: ovalbumin-biotin labelled compound (OB201/OB221). The procedure: as §1, §2
Assay [3] has as its system EGF induced phosphorylation of AKT. The experiment in a line: EGF-induced phosphorylation of AKT in MDA-231 cells, Western blot. The class given is cell-based, human. The note with it: 20 min pre-incubation, EGF 200 ng/ml 10 min. The method, then:
In vitro: To test the effect of VB-201 on epidermal growth factor (EGF)-induced phosphorylation, MDA-231 breast cancer cells (10^6) were starved for 3 hours in 0.5% FCS medium, followed by incubation with various concentrations of VB-201 (1 μg/ml, 5 μg/ml, and 10 μg/ml) or a solvent control for 20 minutes. The MDA-231 cells were then activated with EGF (200 ng/ml) for 10 min. Phosphorylation of AKT was then analyzed by Western Blot. HSP90 was used for a loading control.

In assay [4] the target is T2, MOSPD2. Nature of the assay: Mass-Spectrometry differential display of proteins precipitated from human monocytes. It counts as binding. Further details: endogenous in cells; host or cells: human CD14 monocytes. The note with it: labeled compound. An excerpt: Using labeled VB-201 and VB-221, proteins from human monocytes were precipitated and differential display by Mass-Spectrometry, was studied.

Each structure is given as a SMILES string. Entries after “also recorded” stand apart in the source; their conditions may differ.

T1 sequence (O60603 21-784): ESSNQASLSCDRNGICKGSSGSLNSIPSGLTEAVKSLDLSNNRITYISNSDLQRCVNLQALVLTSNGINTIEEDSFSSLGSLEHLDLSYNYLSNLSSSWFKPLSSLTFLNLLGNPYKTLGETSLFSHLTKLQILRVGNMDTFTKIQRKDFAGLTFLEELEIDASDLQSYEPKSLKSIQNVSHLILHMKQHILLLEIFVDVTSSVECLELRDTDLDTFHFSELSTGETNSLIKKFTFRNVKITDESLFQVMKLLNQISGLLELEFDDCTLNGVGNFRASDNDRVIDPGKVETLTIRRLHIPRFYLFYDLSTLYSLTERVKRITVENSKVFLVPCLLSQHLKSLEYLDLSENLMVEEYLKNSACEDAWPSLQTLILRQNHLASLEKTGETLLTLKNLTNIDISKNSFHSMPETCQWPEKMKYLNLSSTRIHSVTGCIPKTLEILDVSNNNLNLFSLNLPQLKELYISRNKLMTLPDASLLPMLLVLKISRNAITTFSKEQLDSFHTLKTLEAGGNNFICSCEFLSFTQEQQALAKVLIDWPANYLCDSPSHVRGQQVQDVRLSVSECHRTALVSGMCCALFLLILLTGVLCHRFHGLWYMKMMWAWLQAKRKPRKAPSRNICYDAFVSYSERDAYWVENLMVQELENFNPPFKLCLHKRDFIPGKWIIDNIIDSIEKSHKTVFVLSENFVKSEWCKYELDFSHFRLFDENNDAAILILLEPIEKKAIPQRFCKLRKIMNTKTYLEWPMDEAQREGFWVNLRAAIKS

Turning to `CCCCCCCCCCC(CCCCCCCC)COCC(COP(=O)([O-])OCC[N+](C)(C)C)OCCCCC(=O)O` (stereo not drawn) [VB-221, 1-(2′-octyl)dodecyl-2-(4′-carboxy)butyl-glycero-3-phosphocholine], the “inhibition of monocyte chemotaxis / chemokine-induced signaling and migration” value in the assay with human monocytes was “does not inhibit; also recorded: did not inhibit”. At TLR2, the “precipitation of TLR2” value is reported as “comparable intensity”.
For `CCCCCCCCCCCCCCCCOC[C@H](COP(=O)([O-])OCC[N+](C)(C)C)OCCCCC(=O)O` [VB-201, 1-hexadecyl-2-(4′-carboxy)butyl-glycero-3-phosphocholine], the “binding to HA-positive HEK293 cells expressing human MOSPD2” value at MOSPD2 [1] is “strong binding”. Further, at MOSPD2 [2], the “binding / precipitation of MOSPD2” value is “binds and precipitates MOSPD2; also recorded: markedly more intense than VB-221; also recorded: binds to MOSPD2”. The “inhibition of EGF induced phosphorylation of AKT” value in assay [3] (5 μg/ml) is recorded as “significant inhibition”; in assay [3] (10 μg/ml), “nearly completely inhibits”. Also, the “inhibition of monocyte chemotaxis / chemokine-induced signaling and migration” value with human monocytes is listed as “inhibits migration”. Further, on TLR2, the “precipitation of TLR2” value is reported as “comparable intensity”. In addition, the “binding of MOSPD2 by Mass-Spectrometry” value at MOSPD2 [4] is reported as “strong binding”.
